In patent publication US10131652B2, “Pyrimidinyloxy benzene derivatives as herbicides” (E. I. DU PONT DE NEMOURS AND COMPANY, priority 2014, dated 2018):

Tests used:
Format in all cases: in vivo
[1] = tested on: barnyardgrass (Echinochloa crus-galli); experiment: Test B pre-/postemergence plant response
Outline: (§1)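 Ratings reflect visual injury versus untreated controls, from 0 for no effect to 100 for complete control, assessed roughly 10 days after treatment. Formulation: non-phytotoxic solvent mix with surfactant; pre- and postemergence sprays on plants grown in loam soil and sand.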

[2] = tested on: Italian ryegrass (Lolium multiflorum); experiment: Test B pre-/postemergence plant response
Outline: as §1

[3] = tested on: wheat (Triticum aestivum); experiment: Test B pre-/postemergence plant response
Outline: as §1

[4] = tested on: pigweed (Amaranthus retroflexus); experiment: Test B pre-/postemergence plant response
Outline: as §1

corn (Zea mays) = experiment: Test B pre-/postemergence plant response
Outline: as §1

[5] = tested on: ragweed (common ragweed, Ambrosia elatior); experiment: Test B pre-/postemergence plant response
Outline: as §1

kochia (Kochia scoparia) [6] = experiment: Test B pre-/postemergence plant response
Outline: as §1

[7] = tested on: giant foxtail (Setaria faberii); experiment: Test B pre-/postemergence plant response
Outline: as §1

[8] = tested on: galium (catchweed bedstraw, Galium aparine); experiment: Test B postemergence plant response
Outline: (§2)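 Seedlings in a loam soil and sand mix received a postemergence application of the formulated chemicals at the one- to two-leaf stage (2–10 cm tall). They were kept in a greenhouse for roughly 10 days, then scored for injury relative to untreated plants, 0 meaning no effect and 100 complete control.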

[9] = tested on: blackgrass (Alopecurus myosuroides); experiment: Test B postemergence plant response
Outline: as §2

wild oat (Avena fatua) = experiment: Test D postemergence plant response; details: for Plant response rating (scale 0 to 100), Oat, Wild: 16 g ai/ha; for Plant response rating, Oat, Wild: 125 g ai/ha
Outline: (§3)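 Postemergence spray on plants 2–18 cm tall (1- to 4-leaf stage), grown in pots of peat/vermiculite medium. Plants were kept in a greenhouse for 13–15 days, then visually rated against untreated controls on a 0 (no effect) to 100 (complete control) scale.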

[10] = tested on: chickweed (common chickweed, Stellaria media); experiment: Test D postemergence plant response; details: for Plant response rating (scale 0 to 100), Chickweed: 16 g ai/ha; for Chickweed plant response rating: 31 g ai/ha, scale 0 to 100 (0 no effect, 100 complete control); for Plant response rating, Chickweed: scale 0 to 100, 0 no effect, 100 complete control
Outline: as §3

kochia (Kochia scoparia) [11] = experiment: Test D postemergence plant response; details: for Plant response rating (scale 0 to 100), Kochia: 16 g ai/ha; for Kochia plant response rating: 31 g ai/ha, scale 0 to 100 (0 no effect, 100 complete control); for Plant response rating, Kochia: scale 0 to 100, 0 no effect, 100 complete control
Outline: as §3

[12] = tested on: barnyardgrass (Echinochloa crus-galli); experiment: Test C flooded paddy test plant response; details: Flood, 250 g ai/ha; scale of 0 to 100 where 0 is no effect and 100 is complete control; 13 to 15 days
Outline: (§4)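 Scored visually on a 0–100 scale (100 = complete control) against untreated plants 13 to 15 days after treatment in the greenhouse. Compounds went into paddy water of pots flooded to 3 cm, holding 2-leaf-stage plants.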

[13] = tested on: small-flower umbrella sedge (Cyperus difformis); experiment: Test C flooded paddy test plant response; details: Flood, 250 g ai/ha; scale of 0 to 100 where 0 is no effect and 100 is complete control; 13 to 15 days
Outline: as §4

[14] = tested on: ducksalad (Heteranthera limosa); experiment: Test C flooded paddy test plant response; details: Flood, 250 g ai/ha; scale of 0 to 100 where 0 is no effect and 100 is complete control; 13 to 15 days
Outline: as §4

rice (Oryza sativa) = experiment: Test C flooded paddy test plant response; details: Flood, 250 g ai/ha; scale of 0 to 100 where 0 is no effect and 100 is complete control; 13 to 15 days
Outline: as §4

[15] = 31 g ai/ha, Preemergence, 0 to 100 scale where 0 is no effect and 100 is complete control
[16] = 125 g ai/ha, postemergence, 0 to 100 scale, 0 no effect, 100 complete control
[17] = Postemergence, 31 g ai/ha, 0 to 100 scale (0 no effect, 100 complete control)
[18] = Preemergence, 125 g ai/ha, 0 to 100 scale (0 no effect, 100 complete control)
[19] = 31 g ai/ha, scale 0 to 100 (0 no effect, 100 complete control)
[20] = 62 g ai/ha, scale 0 to 100, 0 no effect, 100 complete control
[21] = scale 0 to 100, 0 no effect, 100 complete control

FC(Cl)(Cl)c1cc(-c2ccccc2Oc2ncc(Cl)cn2)no1 [Compound 198]
Plant response rating, Barnyardgrass [1, 15]: 10 | Plant response rating, Barnyardgrass [1, 16]: 50 | Plant response rating, Barnyardgrass [1, 17]: 10 | Barnyardgrass plant response rating [1, 18]: 40 | Plant response rating, Ryegrass, Italian [2, 15]: 0 | Plant response rating, Ryegrass, Italian [2, 16]: 50 | Plant response rating, Ryegrass, Italian [2, 17]: 10 | Ryegrass, Italian plant response rating [2, 18]: 20 | Plant response rating, Wheat [3, 16]: 10 | Plant response rating, Wheat [3, 17]: 0 | Plant response rating, Pigweed [4, 15]: 30 | Plant response rating, Pigweed [4, 16]: 100 | Plant response rating, Pigweed [4, 17]: 100 | Pigweed plant response rating [4, 18]: 100 | Plant response rating, Corn (corn (Zea mays); [16]): 20 | Plant response rating, Corn (corn (Zea mays); [17]): 10 | Plant response rating, Ragweed [5, 15]: 0 | Plant response rating, Ragweed [5, 16]: 20 | Plant response rating, Ragweed [5, 17]: 10 | Ragweed plant response rating [5, 18]: 10 | Plant response rating, Kochia (kochia (Kochia scoparia) [6]; [15]): 0 | Plant response rating, Kochia (kochia (Kochia scoparia) [6]; [16]): 80 | Plant response rating, Kochia (kochia (Kochia scoparia) [6]; [17]): 80 | Kochia plant response rating (kochia (Kochia scoparia) [6]; [18]): 30 | Plant response rating, Foxtail, Giant [7, 15]: 70 | Plant response rating, Foxtail, Giant [7, 16]: 90 | Plant response rating, Foxtail, Giant [7, 17]: 30 | Foxtail, Giant plant response rating [7, 18]: 90 | Plant response rating, Galium [8, 16]: 100 | Plant response rating, Galium [8, 17]: 100 | Plant response rating, Blackgrass [9, 16]: 40 | Plant response rating, Blackgrass [9, 17]: 10 | Plant response rating (scale 0 to 100), Oat, Wild (wild oat (Avena fatua)): 5 | Oat, Wild plant response rating (wild oat (Avena fatua); [19]): 5 | Oat, Wild plant response rating (wild oat (Avena fatua); [20]): 10 | Plant response rating, Oat, Wild (wild oat (Avena fatua); [21]): 10 | Plant response rating (scale 0 to 100), Chickweed [10]: 5 | Chickweed plant response rating [10]: 60 | Plant response rating, Chickweed ([10]; 62 g ai/ha): 60 | Plant response rating, Chickweed ([10]; 125 g ai/ha): 95 | Plant response rating (scale 0 to 100), Kochia (kochia (Kochia scoparia) [11]): 60 | Kochia plant response rating (kochia (Kochia scoparia) [11]): 95 | Plant response rating, Kochia (kochia (Kochia scoparia) [11]; 62 g ai/ha): 100 | Plant response rating, Kochia (kochia (Kochia scoparia) [11]; 125 g ai/ha): 100 | Barnyardgrass plant response rating [12]: 40 | Sedge, Umbrella plant response rating [13]: 100 | Ducksalad plant response rating [14]: 85 | Rice plant response rating (rice (Oryza sativa)): 25

FC(F)c1cc(-c2ccccc2Oc2ncc(Br)cn2)on1 [Compound 212]
Plant response rating, Barnyardgrass [1, 15]: 10 | Plant response rating, Barnyardgrass [1, 16]: 30 | Plant response rating, Barnyardgrass [1, 17]: 0 | Barnyardgrass plant response rating [1, 18]: 60 | Plant response rating, Ryegrass, Italian [2, 15]: 0 | Plant response rating, Ryegrass, Italian [2, 16]: 20 | Plant response rating, Ryegrass, Italian [2, 17]: 0 | Ryegrass, Italian plant response rating [2, 18]: 40 | Plant response rating, Wheat [3, 16]: 10 | Plant response rating, Wheat [3, 17]: 0 | Plant response rating, Pigweed [4, 15]: 100 | Plant response rating, Pigweed [4, 16]: 100 | Plant response rating, Pigweed [4, 17]: 90 | Pigweed plant response rating [4, 18]: 100 | Plant response rating, Corn (corn (Zea mays); [16]): 20 | Plant response rating, Corn (corn (Zea mays); [17]): 10 | Plant response rating, Ragweed [5, 15]: 0 | Plant response rating, Ragweed [5, 16]: 60 | Plant response rating, Ragweed [5, 17]: 20 | Ragweed plant response rating [5, 18]: 40 | Plant response rating, Kochia (kochia (Kochia scoparia) [6]; [15]): 40 | Plant response rating, Kochia (kochia (Kochia scoparia) [6]; [16]): 100 | Plant response rating, Kochia (kochia (Kochia scoparia) [6]; [17]): 90 | Kochia plant response rating (kochia (Kochia scoparia) [6]; [18]): 90 | Plant response rating, Foxtail, Giant [7, 15]: 60 | Plant response rating, Foxtail, Giant [7, 16]: 70 | Plant response rating, Foxtail, Giant [7, 17]: 10 | Foxtail, Giant plant response rating [7, 18]: 100 | Plant response rating, Galium [8, 16]: 100 | Plant response rating, Galium [8, 17]: 60 | Plant response rating, Blackgrass [9, 16]: 50 | Plant response rating, Blackgrass [9, 17]: 10 | Plant response rating (scale 0 to 100), Oat, Wild (wild oat (Avena fatua)): 0 | Oat, Wild plant response rating (wild oat (Avena fatua); [19]): 0 | Oat, Wild plant response rating (wild oat (Avena fatua); [20]): 5 | Plant response rating, Oat, Wild (wild oat (Avena fatua); [21]): 10 | Plant response rating (scale 0 to 100), Chickweed [10]: 10 | Chickweed plant response rating [10]: 30 | Plant response rating, Chickweed ([10]; 62 g ai/ha): 30 | Plant response rating, Chickweed ([10]; 125 g ai/ha): 80 | Plant response rating (scale 0 to 100), Kochia (kochia (Kochia scoparia) [11]): 90 | Kochia plant response rating (kochia (Kochia scoparia) [11]): 100 | Plant response rating, Kochia (kochia (Kochia scoparia) [11]; 62 g ai/ha): 100 | Plant response rating, Kochia (kochia (Kochia scoparia) [11]; 125 g ai/ha): 100 | Barnyardgrass plant response rating [12]: 0 | Sedge, Umbrella plant response rating [13]: 75 | Ducksalad plant response rating [14]: 75 | Rice plant response rating (rice (Oryza sativa)): 20
